# Assay results published in US11331299B2, “Medicinal use of serrulatane diterpenes” (The University of Sydney, priority 2016, dated 2022).
# Where two headings read alike, the source gives them in different places.
# System: 280 human cancer cell lines
# Experiment: OncoPanel cell proliferation assay (10-day)
# Assay type: cell-based
# Conditions: Homo sapiens; for EC50: read-out: Cell Count EC50; for GI50: read-out: Cell Count GI50; for IC50: read-out: Cell Count IC50
# [1] = C-4-II, C-4 II, Female GU - Cervix
# [2] = C-33-A, C-33A, Female GU - Cervix
# [3] = CAL-62, CAL-62, Endocrine - Thyroid
# [4] = CCF-STTG1, CCF-STTG1, CNS - Glioma
# [5] = CGTH-W-1, CGTH-W-1, Endocrine - Thyroid
# [6] = CHP-212, CHP-212, CNS - Neuroblastoma
# [7] = COLO-320-HSR, Colo 320 HSR, Colon
# [8] = COLO-829, COLO 829, Skin (Melanoma)
# [9] = COR-L105, COR-L105, Lung - NSCLC
# [10] = Ca-Ski, Ca Ski, Female GU - Ovary
smiles,measurement,setting,value
"CC(C)=CCC[C@H](CO)[C@@H]1CC[C@@H](C)c2c1cc(C)c(O)c2O [Compound 1, 7,8,18-trihydroxyserrulat-14-ene]",EC50,"BT-474, BT474, Breast",5.41 µM
same,GI50,"BT-474, BT474, Breast",4.95 µM
same,IC50,"BT-474, BT474, Breast",5.46 µM
same,EC50,"BT-549, BT-549, Breast",3.14 µM
same,GI50,"BT-549, BT-549, Breast",3.12 µM
same,IC50,"BT-549, BT-549, Breast",3.14 µM
same,EC50,"BV-173, BV-173, Leukemia",3.8 µM
same,GI50,"BV-173, BV-173, Leukemia",3.79 µM
same,IC50,"BV-173, BV-173, Leukemia",3.8 µM
same,EC50,"BXPC-3, BxPC-3, Pancreas",3.29 µM
same,GI50,"BXPC-3, BxPC-3, Pancreas",3.29 µM
same,IC50,"BXPC-3, BxPC-3, Pancreas",3.3 µM
same,EC50,"BeWo, Placenta",9.06 µM
same,GI50,"BeWo, Placenta",8.92 µM
same,IC50,"BeWo, Placenta",9.06 µM
same,EC50,"C32, Skin (Melanoma)",2.11 µM
same,GI50,"C32, Skin (Melanoma)",1.81 µM
same,IC50,"C32, Skin (Melanoma)",2.11 µM
same,EC50,[1],1.09 µM
same,GI50,[1],1.09 µM
same,IC50,[1],1.1 µM
same,EC50,[2],7.18 µM
same,GI50,[2],7.08 µM
same,IC50,[2],7.18 µM
same,EC50,"CA46, CA46, Lymphoma",2.27 µM
same,GI50,"CA46, CA46, Lymphoma",2.26 µM
same,IC50,"CA46, CA46, Lymphoma",2.27 µM
same,EC50,"CAKI-1, Caki-1, Kidney",2.86 µM
same,GI50,"CAKI-1, Caki-1, Kidney",2.75 µM
same,IC50,"CAKI-1, Caki-1, Kidney",2.86 µM
same,EC50,"CAKI-2, Caki-2, Kidney",4.38 µM
same,GI50,"CAKI-2, Caki-2, Kidney",4.35 µM
same,IC50,"CAKI-2, Caki-2, Kidney",4.38 µM
same,EC50,"CAL-27, Cal 27, Head and Neck",2.16 µM
same,GI50,"CAL-27, Cal 27, Head and Neck",2.15 µM
same,IC50,"CAL-27, Cal 27, Head and Neck",2.16 µM
same,EC50,[3],1.69 µM
same,GI50,[3],1.69 µM
same,IC50,[3],1.69 µM
same,EC50,"CAMA-1, CAMA-1, Breast",3.51 µM
same,GI50,"CAMA-1, CAMA-1, Breast",3.4 µM
same,IC50,"CAMA-1, CAMA-1, Breast",3.51 µM
same,EC50,"CAPAN-1, Capan-1, Pancreas",> 30 µM
same,GI50,"CAPAN-1, Capan-1, Pancreas",> 30 µM
same,IC50,"CAPAN-1, Capan-1, Pancreas",> 30 µM
same,EC50,[4],5.79 µM
same,GI50,[4],5.24 µM
same,IC50,[4],6.6 µM
same,EC50,"CCRF-CEM, CCRFCEM, Leukemia",4.73 µM
same,GI50,"CCRF-CEM, CCRFCEM, Leukemia",4.71 µM
same,IC50,"CCRF-CEM, CCRFCEM, Leukemia",4.73 µM
same,EC50,"CEM/C1, CEM-C1, Leukemia",1.96 µM
same,GI50,"CEM/C1, CEM-C1, Leukemia",1.95 µM
same,IC50,"CEM/C1, CEM-C1, Leukemia",1.96 µM
same,EC50,"CFPAC-1, CFPAC-1, Pancreas",3.65 µM
same,GI50,"CFPAC-1, CFPAC-1, Pancreas",3.65 µM
same,IC50,"CFPAC-1, CFPAC-1, Pancreas",3.66 µM
same,EC50,[5],1.2 µM
same,GI50,[5],1.2 µM
same,IC50,[5],1.2 µM
same,EC50,"CHL-1, CHL-1, Skin (Melanoma)",1.37 µM
same,GI50,"CHL-1, CHL-1, Skin (Melanoma)",1.36 µM
same,IC50,"CHL-1, CHL-1, Skin (Melanoma)",1.37 µM
same,EC50,[6],1.43 µM
same,GI50,[6],1.41 µM
same,IC50,[6],1.43 µM
same,EC50,"CML-T1, CML-T1, Leukemia",1.93 µM
same,GI50,"CML-T1, CML-T1, Leukemia",1.93 µM
same,IC50,"CML-T1, CML-T1, Leukemia",1.93 µM
same,EC50,"COLO 201, Colo 201, Colon",0.92 µM
same,GI50,"COLO 201, Colo 201, Colon",0.92 µM
same,IC50,"COLO 201, Colo 201, Colon",0.92 µM
same,EC50,"COLO 205, Colo 205, Colon",1.31 µM
same,GI50,"COLO 205, Colo 205, Colon",1.31 µM
same,IC50,"COLO 205, Colo 205, Colon",1.31 µM
same,EC50,"COLO 320DM, Colon",3.2 µM
same,GI50,"COLO 320DM, Colon",3.18 µM
same,IC50,"COLO 320DM, Colon",3.2 µM
same,EC50,[7],3.09 µM
same,GI50,[7],3.13 µM
same,IC50,[7],3.13 µM
same,EC50,[8],0.68 µM
same,GI50,[8],0.62 µM
same,IC50,[8],0.68 µM
same,EC50,"COR-L23, COR-L23, Lung - NSCLC",7.18 µM
same,GI50,"COR-L23, COR-L23, Lung - NSCLC",7.14 µM
same,IC50,"COR-L23, COR-L23, Lung - NSCLC",7.18 µM
same,EC50,[9],1.44 µM
same,GI50,[9],1.42 µM
same,IC50,[9],1.45 µM
same,EC50,"CRO-AP2, CRO-AP2, Lymphoma",5.72 µM
same,GI50,"CRO-AP2, CRO-AP2, Lymphoma",5.66 µM
same,IC50,"CRO-AP2, CRO-AP2, Lymphoma",5.72 µM
same,EC50,[10],5.28 µM
same,GI50,[10],5.24 µM
same,IC50,[10],5.29 µM
same,EC50,"Calu-1, Calu1, Lung - NSCLC",3.1 µM
same,GI50,"Calu-1, Calu1, Lung - NSCLC",3.07 µM
same,IC50,"Calu-1, Calu1, Lung - NSCLC",3.1 µM
same,EC50,"Calu-6, Calu6, Lung - NSCLC",9.24 µM
same,GI50,"Calu-6, Calu6, Lung - NSCLC",8.59 µM
